Measured values reported in patent US11524993B2 (priority 2015, dated 2022).

What was measured:
[1] = system: B/FLA/06 yamagata lineage virus; design: species or system mice; conditions: mouse, in vivo
[2] = system: A/WSN/33 H1 virus; design: species or system mice; conditions: mouse, in vivo

## CCOC(=O)C1=C[C@@H](OC(CC)CC)[C@H](NC(C)=O)[C@@H](N)C1 [oseltamivir]
[1]
  oxygen saturation level (pulse oximetry) Day 6, B/FLA/06, avg.: 86%
  survival rates, influenza B infection: 90-100%
[2]
  oxygen saturation level (pulse oximetry) Day 6, A/WSN/33: reduced oxygen saturation at similar levels as those treated with an irrelevant control mAb
  protection (survival), influenza A infection model: no protection
